# Source: PubChem BioAssay (NCI)
#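 Method: 48-hour compound exposure of cells in 96-well plates, five concentrations, linear interpolation of endpoints. The concentration for full growth arrest is given as TGI.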
# What was measured:
# Assay in all cases: growth of human tumour cells (NCI), 48 h
# [1] = test system: MOLT-4 leukemia
# [2] = test system: IGROV1 ovarian
# [3] = test system: RPMI-8226 leukemia
# [4] = test system: LOX IMVI melanoma
# [5] = test system: KM12 colon
# [6] = test system: TK-10 renal
# [7] = test system: UACC-257 melanoma
# [8] = test system: SK-MEL-28 melanoma
# [9] = test system: SR leukemia
# [10] = test system: SNB-75 CNS
Compound,TGI [1],TGI [2],TGI [3],TGI [4],TGI [5],TGI [6],TGI [7],TGI [8],TGI [9],TGI [10]
Cc1ccc(NC(=O)C(=O)CC(=O)c2sc(Nc3c(C)cccc3C)nc2C)cc1C,> 100 µM,> 100 µM,> 100 µM,> 100 µM,> 100 µM,> 100 µM,> 100 µM,> 100 µM,> 100 µM,
CN(C)/N=C1\CC(c2ccccc2)C(C#N)(C#N)C1(C#N)C#N (stereo not drawn),56.5 µM,45.3 µM,47.2 µM,79.2 µM,> 100 µM,32.4 µM,34.3 µM,46 µM,> 100 µM,33.9 µM
C[C@H](C/C=C/C(C)(C)O)[C@H]1CC[C@@]2(C)[C@@H]3CC[C@H]4C(C)(C)[C@@H](O)CC[C@@]45C[C@@]35CC[C@]12C,32.8 µM,48.9 µM,52.8 µM,29.4 µM,77.4 µM,27.1 µM,33.2 µM,37.8 µM,,52.5 µM
COc1cccc(-c2cc(=O)c3ccccc3[nH]2)c1,> 100 µM,> 100 µM,> 100 µM,> 100 µM,> 48.4 µM,> 100 µM,,> 100 µM,> 100 µM,> 100 µM
O=C1Nc2ccccc2/C1=c1\[nH]c(=O)/c(=C\c2ccc(OCc3ccccc3)cn2)[nH]c1=O,> 100 µM,> 100 µM,> 100 µM,> 100 µM,> 100 µM,50.1 µM,> 100 µM,> 100 µM,69.4 µM,14 µM
N#C/C(=C/NC(=S)c1ccncc1)C(N)=O,> 100 µM,> 100 µM,,> 100 µM,> 100 µM,> 100 µM,> 100 µM,> 100 µM,,> 100 µM
C[N+]1(CCN[N+]2(C)CCCCC2)CCc2ccccc2C1 (stereo not drawn),> 100 µM,> 100 µM,> 100 µM,> 100 µM,> 100 µM,> 100 µM,> 100 µM,> 100 µM,> 100 µM,> 100 µM
O=C(CCc1ccccc1)ON1C(=S)C(c2ccccc2)(c2ccccc2)N=C1Sc1ccccc1,28.6 µM,55.5 µM,74.6 µM,42.4 µM,> 100 µM,> 100 µM,> 100 µM,,,> 100 µM
CCN(CC)c1ccc(/C=C/C=C2C(=O)NC(=S)NC2=O)cc1,> 100 µM,> 100 µM,> 100 µM,> 100 µM,> 100 µM,> 100 µM,> 100 µM,> 100 µM,> 100 µM,> 100 µM
COc1cccc(/C=N/[N-]C(N)=O)c1[O-].[Cu+2].[OH3+].c1ccc(-c2ccccn2)nc1,> 100 µM,> 74.8 µM,> 100 µM,> 81.3 µM,> 100 µM,42.9 µM,> 100 µM,41.2 µM,> 100 µM,33.9 µM
CN(C)c1cccc(NC2=NCCO2)c1,> 100 µM,> 100 µM,> 100 µM,> 100 µM,78.6 µM,> 100 µM,> 100 µM,> 100 µM,99.6 µM,> 100 µM
